Where two headings read alike, the source gives them in different places.
Assays:
[1] = Phase 1 part 1 single ascending dose: pharmacokinetics; format: in vivo, human; settings: for half-life / Tmax: male, human, plasma, oral
Experimental: A 4-part, Phase 1 randomized, double-blind, placebo-controlled, first-in-human study was performed to determine the safety, tolerability, PK, and PD of single ascending doses (SADs; part 1) and multiple ascending doses (MADs; part 2) of Compound A HBr in healthy participants. The study also assessed whether there were sex (part 3) and age-related (part 4) effects on the PK of a single dose of Compound A HBr. The study was approved by the local independent ethics committee; the BEBO foundation in Assen, Netherlands; and the Central Committee on Research Involving Human Subjects in The Hague, Netherlands; and conducted according to the provisions of the Declaration of Helsinki. Written informed consent was obtained from each study participant before conducting any protocol-related procedures.
In part 1, Compound A HBr or placebo was administered to 64 healthy Caucasian men aged 18 to 55 years (inclusive) in 8 cohorts of 8 participants each. In each cohort, 6 participants were randomized to receive a single dose of Compound A HBr and 2 participants were randomized to receive matching placebo. All cohorts included 2 sentinel participants of whom 1 received Compound A HBr and 1 received matching placebo. The remaining 6 participants, of whom 5 received Compound A HBr and 1 received placebo, were dosed ≥24 hours following the sentinel participants. The dosing cohorts were 5, 10, 20, 50, 100, 200, 400, and 800 mg. Doses were administered in an ascending order per cohort, with a minimum 10-day interval between consecutive dose levels. Participants received a single dose of Compound A HBr or placebo in the fasted state.
Plasma PK parameters were derived by non-compartmental analysis using WinNonlin® (version 6.3). Dose proportionality was assessed using the power model with AUC0-∞, AUC0-last, and Cmax for part 1 (SAD) and with AUC0-last, AUC0-∞, AUC0-τ, and Cmax for part 2 (MAD). A linear model (ln(Y)=α+β×ln(X), where Y is the pharmacokinetic parameter and X is the dose) was used to fit the power model, after log-transformation of the parameters. Dose proportionality was concluded if the 95% confidence interval (CI) for slope (β) included the value 1.
An analytical method for the determination of Compound A in human plasma (dipotassium ethylenediaminetetraacetic acid [K2-EDTA]) and human urine using solid-phase extraction and high-performance liquid chromatography with mass spectrometric detection was successfully validated over the concentration range 0.1000 ng/mL (lower limit of quantification) to 100.0 ng/mL prior to initiation of the clinical trial. […] For all other analytes, validated quantitative measurement methods were used.

[2] = test system: 46 targets in receptor binding and enzyme inhibition studies; experiment: Pan-receptor screening
Excerpt: Compound A, at a concentration of 10 μmol/L, was screened against 46 targets in receptor binding and enzyme inhibition studies to determine if Compound A interacted with any off-target enzymes or receptors.

human CYP11B2 (hCYP11B2) = target: T1, human CYP11B2 (hCYP11B2) (Homo sapiens, UniProt P19099); experiment: Assay of hCYP11B2 inhibition (11-DOC to aldosterone); format: biochemical; settings: mitochondrial fraction of V79 cells stably expressing hCYP11B2; substrate 11-DOC; read-out: Inhibition constant (Ki) hCYP11B2
T1 construct: expressed in transfected cells; host or cells: V79 cells (mitochondrial fraction)
T1 sequence (P19099 25-503): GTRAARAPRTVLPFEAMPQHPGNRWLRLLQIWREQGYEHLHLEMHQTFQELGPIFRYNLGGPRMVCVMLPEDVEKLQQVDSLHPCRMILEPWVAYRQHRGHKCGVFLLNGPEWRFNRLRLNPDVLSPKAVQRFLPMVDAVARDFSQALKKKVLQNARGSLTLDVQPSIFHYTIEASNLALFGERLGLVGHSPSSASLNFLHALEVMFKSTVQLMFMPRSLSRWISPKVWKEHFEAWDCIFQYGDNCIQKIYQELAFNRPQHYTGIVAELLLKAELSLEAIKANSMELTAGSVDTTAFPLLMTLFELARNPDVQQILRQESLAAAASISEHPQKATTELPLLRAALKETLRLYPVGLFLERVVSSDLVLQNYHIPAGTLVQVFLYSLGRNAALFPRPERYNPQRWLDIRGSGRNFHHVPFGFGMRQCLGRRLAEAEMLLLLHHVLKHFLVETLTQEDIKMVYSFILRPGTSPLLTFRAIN
Experimental: The inhibitory effects of Compound A on human CYP 11B1 (hCYP11B1) and human CYP11B2 (hCYP11B2) enzyme activity were evaluated by determining the enzymatic conversion rates of 11-deoxycortisol to cortisol for hCYP11B1 and 11-DOC to aldosterone for hCYP11B2.

CC(=O)N[C@H]1CC[C@H](NC(=O)CN2CCN(c3nncc(-c4ccc(C)cc4)n3)CC2)CC1 [Compound A HBr]
half-life ([1]; single 5 mg, fasted, read-out: T 1/2, mean (SD) (converted)): 8 h | half-life ([1]; single 10 mg, fasted, read-out: T 1/2, mean (SD) (converted)): 8 h | Tmax ([1]; single 10 mg, fasted, read-out: Tmax, median and range): 1.25 h | Tmax ([1]; single 200 mg, fasted, read-out: Tmax, median and range): 1.25 h | Tmax ([1]; single 400 mg, fasted, read-out: Tmax, median and range): 1.25 h | half-life ([1]; single 800 mg, fasted, read-out: T 1/2, mean (SD) (converted)): 11 h | Tmax ([1]; single doses 5 to 800 mg, read-out: Median Tmax values): 1 to 1.5 h | half-life ([1]; single doses 5 to 800 mg, read-out: mean t1/2 values): 7.92 to 10.5 h | AUC0-inf, mean (SD) ([1]; single 5 mg, fasted): 231 (25) ng × h/mL | Cmax, mean (SD) ([1]; single 5 mg, fasted): 37 (7) ng/mL | Tmax, median and range ([1]; single 5 mg, fasted): 1.5 (1-3) h | AUC0-inf, mean (SD) ([1]; single 10 mg, fasted): 451 (46) ng × h/mL | Cmax, mean (SD) ([1]; single 10 mg, fasted): 76 (20) ng/mL | AUC0-inf, mean (SD) ([1]; single 20 mg, fasted): 768 (182) ng × h/mL | Cmax, mean (SD) ([1]; single 20 mg, fasted): 141 (76) ng/mL | Tmax, median and range ([1]; single 20 mg, fasted): 1.5 (1-3) h | AUC0-inf, mean (SD) ([1]; single 50 mg, fasted): 2155 (258) ng × h/mL | Cmax, mean (SD) ([1]; single 50 mg, fasted): 573 (206) ng/mL | T 1/2, mean (SD) ([1]; single 50 mg, fasted): 9 (2) h | Tmax, median and range ([1]; single 50 mg, fasted): 1 (0.5-3) h | AUC0-inf, mean (SD) ([1]; single 100 mg, fasted): 5366 (493) ng × h/mL | Cmax, mean (SD) ([1]; single 100 mg, fasted): 1211 (248) ng/mL | Tmax, median and range ([1]; single 100 mg, fasted): 1.5 (1-3) h | AUC0-inf, mean (SD) ([1]; single 200 mg, fasted): 10645 (3486) ng × h/mL | Cmax, mean (SD) ([1]; single 200 mg, fasted): 2848 (1015) ng/mL | T 1/2, mean (SD) ([1]; single 200 mg, fasted): 10 (4) h | AUC0-inf, mean (SD) ([1]; single 400 mg, fasted): 17257 (2907) ng × h/mL | Cmax, mean (SD) ([1]; single 400 mg, fasted): 4455 (862) ng/mL | AUC0-inf, mean (SD) ([1]; single 800 mg, fasted): 29331 (3623) ng × h/mL | Cmax, mean (SD) ([1]; single 800 mg, fasted): 7708 (1617) ng/mL | Tmax, median and range ([1]; single 800 mg, fasted): 1.5 (0.5-4) h | dose proportionality of AUC0-last and AUC0-∞ ([1]; single doses 5 to 800 mg): dose-proportional increase

CC(=O)N[C@H]1CC[C@H](NC(=O)CN2CCN(c3nncc(-c4ccc(C)cc4)n3)CC2)CC1 [Compound A]
inhibition of 46 primary molecular target receptors or enzymes ([2]; 10 μmol/L): did not substantially inhibit | IC50 ([2]; any of 46 targets, read-out: IC50 for off-target receptors or enzymes): > 10000 nM | Ki (human CYP11B2 (hCYP11B2)): 1.27 nM
